The source of these data is ChEMBL document CHEMBL5150069, “Solid-Phase Synthesis of Cereblon-Recruiting Selective Histone Deacetylase 6 Degraders (HDAC6 PROTACs) with Antileukemic Activity” (J Med Chem, 2022).

pEC50, pIC50: −log10 of the molar value. Active and inactive are the calls of the source. No cut-off for these calls is given here.

The target of experiment [1] is T1, Histone deacetylase 1 (Homo sapiens, UniProt Q13547). In words: Inhibition of recombinant full length C-terminal His/Flag-tagged human HDAC1 (1 to 482 residues) using Z-Lys(Ac)-AMC as substrate preincubated for 90 mins followed by trypsin addition and measured after 30 mins by fluorescence based microplate reader analysis.
Experiment [2] concerns the target T2, Protein deacetylase HDAC6 (Homo sapiens, UniProt Q9UBN7).
T2 sequence (Q9UBN7 whole entry): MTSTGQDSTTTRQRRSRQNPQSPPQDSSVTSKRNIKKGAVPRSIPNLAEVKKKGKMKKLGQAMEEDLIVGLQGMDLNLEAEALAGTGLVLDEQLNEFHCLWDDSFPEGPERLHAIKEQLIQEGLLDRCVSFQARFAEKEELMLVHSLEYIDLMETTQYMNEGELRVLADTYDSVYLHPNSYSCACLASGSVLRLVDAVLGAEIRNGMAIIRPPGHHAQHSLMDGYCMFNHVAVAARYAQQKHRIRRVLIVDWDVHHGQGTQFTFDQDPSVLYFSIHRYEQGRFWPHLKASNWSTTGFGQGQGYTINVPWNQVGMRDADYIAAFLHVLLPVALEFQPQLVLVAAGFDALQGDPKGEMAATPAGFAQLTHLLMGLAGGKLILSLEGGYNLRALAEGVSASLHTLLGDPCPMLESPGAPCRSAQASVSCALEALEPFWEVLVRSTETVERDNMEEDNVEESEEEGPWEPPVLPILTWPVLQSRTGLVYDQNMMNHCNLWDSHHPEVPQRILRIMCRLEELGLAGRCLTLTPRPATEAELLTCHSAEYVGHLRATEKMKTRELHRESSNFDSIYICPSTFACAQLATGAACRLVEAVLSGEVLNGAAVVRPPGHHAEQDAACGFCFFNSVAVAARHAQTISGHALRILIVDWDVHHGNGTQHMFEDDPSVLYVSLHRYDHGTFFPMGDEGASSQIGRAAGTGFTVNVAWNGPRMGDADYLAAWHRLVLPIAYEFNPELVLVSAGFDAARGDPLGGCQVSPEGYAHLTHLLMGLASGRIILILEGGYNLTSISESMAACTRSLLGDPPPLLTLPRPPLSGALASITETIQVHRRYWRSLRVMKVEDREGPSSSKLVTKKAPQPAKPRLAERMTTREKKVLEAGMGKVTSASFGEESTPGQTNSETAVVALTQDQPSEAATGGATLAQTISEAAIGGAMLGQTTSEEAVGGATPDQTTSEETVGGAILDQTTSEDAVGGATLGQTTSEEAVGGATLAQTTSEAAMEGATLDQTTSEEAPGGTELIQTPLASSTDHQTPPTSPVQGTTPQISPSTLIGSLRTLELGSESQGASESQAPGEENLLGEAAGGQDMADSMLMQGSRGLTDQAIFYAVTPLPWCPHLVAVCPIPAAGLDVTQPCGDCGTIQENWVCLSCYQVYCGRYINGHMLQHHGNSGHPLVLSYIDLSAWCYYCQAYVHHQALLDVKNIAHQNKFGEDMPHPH
In words: Inhibition of recombinant full length N-terminal GST-tagged human HDAC6 (1 to 1215 residues) using Z-Lys(Ac)-AMC as substrate preincubated for 90 mins followed by trypsin addition and measured after 30 mins by fluorescence based microplate reader analysis.

The target of experiment [3] is T3, Protein deacetylase HDAC6 (Homo sapiens) (UniProt Q9UBN7).
T3 sequence (whole entry): T2 sequence (Q9UBN7 whole entry)
In words: Induction of HDAC6 degradation in human HL-60 cells at 0.1 to 10 uM after 6 hrs by Western blot analysis. The class given is cell-based. The note with it: dose 0.1-10 µM. In general terms: Immunoblotting shows a protein as a band on a membrane.

In experiment [4] the target is T3, Protein deacetylase HDAC6 (Homo sapiens). Briefly: Induction of HDAC6 degradation in human HL-60 cells assessed as hyperacetylation of alpha-tubulin at 0.1 to 10 uM after 6 hrs by Western blot analysis. The class given is cell-based. The note with it: dose 0.1-10 µM.
Experiment [5] deals with T1, Histone deacetylase 1. Briefly: Induction of HDAC1 degradation in human HL-60 cells assessed as hyperacetylation of histone H3 at 0.1 to 10 uM after 6 hrs by Western blot analysis. The note with it: dose 0.1-10 µM. The class given is cell-based.
For experiment [6], the target named is T3, Protein deacetylase HDAC6 (Homo sapiens). Briefly: Induction of Hitbit-fused HDAC6 degradation in human K562 cells at 1 uM after 5.5 to 7.5 hrs by NanoGlo HiBit lytic assay. The class given is cell-based. The note with it: time 5.5-7.5 hrs. Background: The HiBiT peptide binds its large partner to form an active luciferase.
Experiment [7] has the same target. In words: Induction of HDAC6 degradation in human U-266 cells at 100 to 1000 nM incubated for 24 hrs by Western blot analysis. The class given is cell-based. The note with it: dose 100-1000 nM.
Experiment [8] shares this target. Briefly: Induction of HDAC6 degradation in human U-266 cells assessed as hyperacetylation of alpha-tubulin at 100 to 1000 nM incubated for 24 hrs by Western blot analysis. The class given is cell-based. The following applies: dose 100-1000 nM.
For experiment [9] the target is unchanged. In words: Induction of HDAC6 degradation in human HL-60 cells assessed as maximum degradation after 6 hrs by Western immunoassay. The class given is cell-based.
Experiment [10] has the same target. Briefly: Induction of HDAC6 degradation in human HL-60 cells at 100 nM after 3 hrs by fluorescence microscopy analysis. The class given is cell-based.
For experiment [11] the target is unchanged. Briefly: Induction of HDAC6 degradation in human HL-60 cells at 100 nM after 6 hrs by fluorescence microscopy analysis. The class given is cell-based.
The target is the same in experiment [12]. In words: Induction of HDAC6 degradation in human HL-60 cells at 1 uM after 3 to 6 hrs by fluorescence microscopy analysis. The class given is cell-based. The following applies: time 3-6 hrs.
The target is the same in experiment [13]. In words: Induction of HDAC6 degradation in human HL-60 cells assessed as hyperacetylation of histone H3 at 1 uM after 24 hrs. The class given is cell-based.
The subject of experiment [14] is MOLM-13. In words: Cytotoxicity against human MOLM-13 cells assessed as reduction in cell viability incubated for 72 hrs by ATP based Celltiter-glo luminescent assay. The following applies: MOLM-13, 72 h. The class given is functional. Background: In ATP-based viability assays light output follows the ATP content of the culture.
Experiment [15] relates to MOLM-13. Briefly: Induction of apoptosis in human MOLM-13 cells after 48 hrs by Annexin-V and PI staining based flow cytometry assay. The class given is functional, cell-based. The following applies: dose 8-24 µM, DDE = dose-dependent effect.
For experiment [16], the system named is MOLM-13. Briefly: Induction of cell cycle arrest in human MOLM-13 cells assessed as increase in sub-G1 phase population incubated for 48 hrs by PI staining based flow cytometry analysis. The class given is functional. The following applies: dose 8-24 µM, DDE = dose-dependent effect.
Experiment [17] deals with MOLM-13. In words: Induction of cell cycle arrest in human MOLM-13 cells assessed as reduction in G2/M phase population incubated for 48 hrs by PI staining based flow cytometry analysis. The class given is functional. The following applies: dose 8-24 µM, DDE = dose-dependent effect.
For experiment [18], the system named is MOLM-13. In words: Induction of cell cycle arrest in human MOLM-13 cells assessed as increase in sub-G1 phase population at 8 uM incubated for 48 hrs by PI staining based flow cytometry analysis (reference value: […]). The class given is functional.
For experiment [19], the system named is MOLM-13. Briefly: Induction of cell cycle arrest in human MOLM-13 cells assessed as increase in sub-G1 phase population at 16 uM incubated for 48 hrs by PI staining based flow cytometry analysis (reference value: […]). The class given is functional.
Experiment [20] relates to MOLM-13. In words: Induction of cell cycle arrest in human MOLM-13 cells assessed as increase in sub-G1 phase population at 24 uM incubated for 48 hrs by PI staining based flow cytometry analysis (reference value: […]). The class given is functional.
The target of experiment [21] is T2, Protein deacetylase HDAC6. In words: Induction of HDAC6 degradation in human HL-60 cells after 6 hrs by Western immunoassay. The class given is cell-based.
Experiment [22] deals with T2, Protein deacetylase HDAC6. In words: Induction of HDAC6 degradation in human HL-60 cells assessed as hyperacetylation of alpha-tubulin after 6 hrs by Western immunoassay. The class given is cell-based.

T1 sequence (Q13547 whole entry, the tested form may be a part): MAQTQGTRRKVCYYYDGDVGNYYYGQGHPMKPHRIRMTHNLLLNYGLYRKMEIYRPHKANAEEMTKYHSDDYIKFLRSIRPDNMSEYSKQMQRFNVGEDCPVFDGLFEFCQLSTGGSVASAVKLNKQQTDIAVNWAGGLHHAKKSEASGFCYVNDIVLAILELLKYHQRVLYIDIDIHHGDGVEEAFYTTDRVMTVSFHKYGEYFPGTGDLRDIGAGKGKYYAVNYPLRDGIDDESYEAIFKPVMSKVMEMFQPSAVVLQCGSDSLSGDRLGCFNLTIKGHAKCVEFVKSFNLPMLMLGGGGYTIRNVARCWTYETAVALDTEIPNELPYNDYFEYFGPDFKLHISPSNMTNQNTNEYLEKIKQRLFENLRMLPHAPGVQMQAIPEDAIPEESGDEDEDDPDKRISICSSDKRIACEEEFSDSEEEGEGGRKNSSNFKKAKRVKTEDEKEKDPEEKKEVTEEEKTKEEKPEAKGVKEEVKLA

Regarding `O=C(CCCCCCNC(=O)c1ccc(NC(=O)CCOCCOCCOCCOCCNC(=O)CNc2cccc3c2C(=O)N(C2CCC(=O)NC2=O)C3=O)cc1)NO` (stereo not drawn), the negative logarithm of the IC50 (pIC50) at Histone deacetylase 1 [1] is 6.73; in experiment [2], 7.82.

As to `Cc1nc2cc(NC(=O)CCOCCOCCOCCNC(=O)COc3cccc4c3C(=O)N(C3CCC(=O)NC3=O)C4=O)ccc2n1Cc1ccc(C(=O)NO)cc1F` (stereo not drawn), the negative logarithm of the IC50 (pIC50) (on Histone deacetylase 1 [1]; in experiment [2]) was 5.88 throughout.

Regarding `Cc1nc2cc(NC(=O)CCOCCOCCOCCOCCNC(=O)COc3cccc4c3C(=O)N(C3CCC(=O)NC3=O)C4=O)ccc2n1Cc1ccc(C(=O)NO)cc1F` (stereo not drawn), the negative logarithm of the IC50 (pIC50) (at Histone deacetylase 1 [1]; in [2]) was 5.83 throughout.

Take `O=C(CCCCCCNC(=O)c1ccc(NC(=O)CCOCCOCCOCCNC(=O)COc2cccc3c2C(=O)N(C2CCC(=O)NC2=O)C3=O)cc1)NO` (stereo not drawn): the negative logarithm of the IC50 (pIC50) at Histone deacetylase 1 [1] was 6.79; in [2] it was 7.77.

Turning to `O=C(CCCCCCNC(=O)c1ccc(NC(=O)CCOCCOCCOCCOCCNC(=O)COc2cccc3c2C(=O)N(C2CCC(=O)NC2=O)C3=O)cc1)NO` (stereo not drawn), the pIC50 is 6.68 at Histone deacetylase 1 [1] and 7.68 in experiment [2].

As for `O=C(CCCCCCNC(=O)c1ccc(NC(=O)CCCCCCCNC(=O)COc2cccc3c2C(=O)N(C2CCC(=O)NC2=O)C3=O)cc1)NO` (stereo not drawn), the result (in [3]; in [4]; on Histone deacetylase 1 [5]; in [6]; in experiment [7]; in experiment [8]) was Active. The result in experiment [10], in [11], in [12] and in experiment [13] was Active. Besides, the Emax in experiment [9] turned out to be 84.5%. The pIC50 in the experiment on MOLM-13 [14] is 4.76. For the same compound, the Activity result was “Dde” in the experiment on MOLM-13 [15]; “Dde” with MOLM-13 [16]; “Dde” in the experiment on MOLM-13 [17]; 7.5% in the experiment with MOLM-13 [18]; 9.9% with MOLM-13 [19]; 13.4% in the experiment with MOLM-13 [20].

As for `O=C(CCCCCCNC(=O)c1ccc(NC(=O)COCCNC(=O)COc2cccc3c2C(=O)N(C2CCC(=O)NC2=O)C3=O)cc1)NO` (stereo not drawn), the pIC50 at Histone deacetylase 1 [1] was 6.81; in [2] it was 7.92.

Take `O=C(CCCCCCNC(=O)c1ccc(NC(=O)COCCOCCNC(=O)COc2cccc3c2C(=O)N(C2CCC(=O)NC2=O)C3=O)cc1)NO` (stereo not drawn): the outcome in [3] was Active.

Turning to `Cc1nc2cc(NC(=O)CCCCCCCNC(=O)COc3cccc4c3C(=O)N(C3CCC(=O)NC3=O)C4=O)ccc2n1Cc1ccc(C(=O)NO)cc1F` (stereo not drawn), the pIC50 (at Histone deacetylase 1 [1]; in experiment [2]) was 6.19 throughout. In addition, the result in [3], in experiment [4], in experiment [6], in experiment [7] and in [8] was Active. The same compound registered a DC50 in experiment [21] of 19.4 nM. Also, the Emax in experiment [9] came to 92.8%. Besides, the pEC50 in [22] was 5.26.

Take `Cc1nc2cc(NC(=O)CCOCCOCCOCCOCCNC(=O)CNc3cccc4c3C(=O)N(C3CCC(=O)NC3=O)C4=O)ccc2n1Cc1ccc(C(=O)NO)cc1F` (stereo not drawn): the negative logarithm of the IC50 (pIC50) (at Histone deacetylase 1 [1]; in experiment [2]) was 5.85 throughout.

A word on the pIC50: it is −log10 of the IC50, conventionally taken in molar units. One may read the Emax as the size of the effect at its maximum, as opposed to the concentration needed. The term DC50 denotes the concentration at which degradation of the target reaches its halfway point. Read a low DC50 as a more potent degrader. By pEC50 is commonly meant the negative decadic logarithm of the EC50, by convention in mol/L.
